Source: US20200087625A1, “METHODS FOR ISOLATING, EXPANDING AND ADMINISTERING CANCER SPECIFIC CD8+ T CELLS” (priority 2017, published 2020)

What was measured:
[1] = tested on: LLC-GLF cells; assay: IV metastasis model of Lewis lung carcinoma (LLC); assay type: in vivo, mice; conditions: systemic 1V270 day -1
Protocol: (§1) FIGS. 27A-27D. […] Therapeutic effects of 1V270 were evaluated in IV metastatic models of 816 melanoma (A, B) and LLC (C, D). BG-albino mice (n=B-10) (A, C), C57BL6 wild type mice (n=15-20) (B and D), were i.p. administered with 200 μg 1V270 or vehicle!iNext day, 5×10^5 B16-GLF cells (A) or 1×10^5 LLC-GLF cells (c) were i.v. administered (A,C). The tumor signals were quantified by IVIS at day 14. […] (B,D) The mice were monitored daily and were euthanized upon reaching the criteria according to UCSD IACUC guidelines. The survival data were analyzed by Log-Rank test. Data were pooled from 2 independent experiments showing similar results and were analyzed by Living Image® software. […] Statistical differences were analyzed by the Mann-Whitney U test comparing 1V270 treatment groups against the vehicle. **P<0.05.
(§2) GFP and luciferase (GLF)-expressing tumor cells (2×10^4 of 4T1-GLF, 5×10^5 of B16-GLF, and […] of LLC-GLF) were i.v. injected into BALB/c mice for 4T1 models, BG-albino or wild-type C57BU6 for B16 melanoma or LLC models). […] Image data were acquired by 1 Ss exposure using the IVIS Spectrum and analyzed using the Living Image software, version 4.5.2 (Perkin Elmer, Waltham, Mass.). We confirmed that the tumor signals in the lungs at day 10 correlated with the number of lung metastasis determined on day 21, as well as the overall survival (Supplemental figures 10). […]

[2] = tested on: B16-GLF cells; assay: IV metastasis model of B16 melanoma; assay type: in vivo, mice; conditions: systemic 1V270 day -1
Protocol: as §1, §2

[3] = tested on: CD8+ T cells; assay: CD8+ T cell activation (mLN flow cytometry) and lung histology in IV metastasis model; assay type: in vivo, BALB/c mice; conditions: day 21, vs vehicle
Protocol: FIGS. 23A-23G. Systemic administration of […] induces tumor-specific CD8^+ T cells. (A) Protocol of IV metastasis model. (B) BALB/c mice (n=B-15/group) were i.v. injected with 4T1 cells (2×10^4) on day 0.1V270 (2, 20, or 200 μg/injection) was i.p. administered on days −1, 7, 10, and 14. The numbers of lung nodules were counted on day 21. (C) 200 μg/injection 1V270 was i.p. administered on days −1 or 0 followed by days 7, 10, and 14 where indicated. The numbers of lung nodules were counted on day 21. Each dot indicates an individual mouse and horizontal and vertical bars indicate means±SEM. *P<0.05, **P<0.01 Kruskal-Wallis test with Dunn's post hoc test comparing treatment groups against vehicle group. (D-G) BALB/c mice (n=10/group) were treated with 1V270 (200 μg/injection) on day-1 and 4T1 cells were inoculated on day 0. (D,E) Three weeks later, mLNs cells were stained for CD3 and CD8. Intracellular granzyme B (D) and IFNγ (E) were analyzed by flow cytometry. Data are representative of 2 independent experiments showing similar results. *P<0.05, by the Mann-Whitney U test comparing the 1V270 treatment groups against the vehicle treated group. (F) Histological analysis of lungs on day 21. Representative images of H&E staining and immunohistochemical staining for CD3 and CD45. Scale bar: 100 μm. Original magnification ×200. (G) Tumor-specific cytotoxicity was examined using 4T1 cells as target cells and BALB/3T3 cells as irrelevant target cells. […] The percent specific killing was calculated. Data were analyzed by two-way ANOVA using a Bonferroni post hoc test comparing treatment groups against vehicle group. *P<0.05. […]
To make the single cell suspensions, tumors were dissociated using the mouse tumor dissociation kit (MiltenyiBiotec, San Diego, Calif.) and the gentle MACSOcto Dissociator according to the manufacture's protocol. […] Total cell number was counted by the ViaCount assay (MilliporeSigma, Darmstadt, Germany). […]

Structure (SMILES): CCCCCCCCC=CCCCCCCCC(=O)OCC(COP(=O)(O)OCCNC(=O)c1ccc(Cn2c(=O)[nH]c3c(N)nc(OCCOC)nc32)cc1)OC(=O)CCCCCCCC=CCCCCCCCC (stereo not shown) [1V270]
- lung metastasis (IVIS tumor signal) ([1]; LLC-GLF, day 14): inhibited lung metastasis by day 14
- mouse survival ([1]; LLC): prolonged mouse survival
- lung metastasis (IVIS tumor signal) ([2]; B16-GLF, day 14): inhibited lung metastasis by day 14
- mouse survival ([2]; B16): prolonged mouse survival
- infiltration of CD45+CD3+ cells in the pulmonary tumor microenvironment ([3]; histology): higher infiltration
- percentage of IFNγ positive CD8+ T cells ([3]; mLN, 1V270 200 μg day -1): Significantly higher percentages
- percentage of granzyme B positive CD8+ T cells ([3]; mLN, 1V270 200 μg day -1): Significantly higher percentages
